Values of other authors as cited in publication PMC3880013, “Toward an Understanding of Agonist Binding to Human Orexin-1 and Orexin-2 Receptors with G-Protein-Coupled Receptor Modeling and Site-Directed Mutagenesis” (Biochemistry, 2013).
Like-named read-outs stand apart in the source and are kept apart here. Marks after values point to notes of the source that are not given here. Where no end group is shown, it is not given here.

Tests used:
hOX1 A127T = hOX1 A127T (3.33) relative to wild type; [Ca2+]i response; ref 37 Malherbe et al.; cited from earlier work
Text: (§1) Table 1 Comparison of the Effects of Different Mutations in hOX1 and hOX2 on the Binding Potencies of Orexin-A and Orexin-B ^a | column: hOX1 / ratio ^b of Orexin-A

hOX1 Q126A = hOX1 Q126A (3.32) relative to wild type; [Ca2+]i response; ref 37 Malherbe et al.; cited from earlier work
Text: as §1

hOX1 Y348A = hOX1 Y348A (7.43) relative to wild type; [Ca2+]i response; ref 37 Malherbe et al.; cited from earlier work
Text: as §1

hOX1 H344A = details: cited from earlier work; for ratio EC50(mut)/EC50(WT): hOX1 H344A (7.39) relative to wild type, [Ca2+]i response, ref 37 Malherbe et al.
Text: Other mutations had no major effect on efficacy. || An additional residue that plays a key role in OX receptor agonist binding and activation by Orexin peptides is H^7.39. […] We observed that in OX1, H^7.39 interacts with residues L16 and L20 of helix 1 of OxA (see Figure 6A). […] On the other hand, in OX2, H^7.39 interacts with L20 and not with L16 (see Figure 6B), and ...

hOX2 Y232A = test system: hOX2 Y232A; design: method as in 2 sources, one per row (each row's own in cited_ref): ref 37 Malherbe et al. ||| ref 37 = [37]; PMID 20404073; doi:10.1124/mol.110.064584; Malherbe P.; Roche O.; Marcuz A.; Kratzeisen C.; Wettstein J. G.; Bissantz C. ( 2010 ) Mapping the Binding Pocket of Dual Antagonist Almorexant to Human Orexin 1 and Orexin 2 Receptors: Compariso; details: cited from earlier work; for ratio EC50(mut)/EC50(WT): hOX2 Y232A (5.47) relative to wild type, [Ca2+]i response, ref 37 Malherbe et al.
hOX1 V130A = hOX1 V130A (3.36) relative to wild type, [Ca2+]i response, ref 37 Malherbe et al., cited from earlier work
hOX2 F227A = details: cited from earlier work; for ratio EC50(mut)/EC50(WT): hOX2 F227A (5.42) relative to wild type, [Ca2+]i response, ref 37 Malherbe et al.
Text: In the case of OX1, F^5.42 interacts with H26 of OxA that, based on the SDM experiments, has an only moderate impact on potency (see Figure 6A). This is in contrast to OX2 in which F^5.42 interacts with key residue I30 (see Figure 6B). Mutation of I30 of OxA to alanine complet ...

hOX2 Y317A = details: cited from earlier work; for ratio EC50(mut)/EC50(WT): hOX2 Y317A (6.48) relative to wild type, [Ca2+]i response, ref 37 Malherbe et al.
Text: D211^45.51 is in the proximity of L19. L19 and L20 form hydrophobic interactions with W214^45.54 and H350^7.39, respectively. […] In the case of OX2, Y223^5.38 forms an interaction with H26 of OxA. F227^5.42 forms a ...

hOX2 T111A = test system: hOX2 T111A; design: method as in earlier work; details: hOX2 T111A (2.61) relative to wild type, [Ca2+]i response, ref 37 Malherbe et al., cited from earlier work
hOX2 D211A = test system: hOX2 D211A; design: method as in earlier work; details: hOX2 D211A (45.51) relative to wild type, [Ca2+]i response, ref 37 Malherbe et al., cited from earlier work
hOX2 Q134A = test system: hOX2 Q134A; design: method as in earlier work; details: hOX2 Q134A (3.32) relative to wild type; [Ca2+]i response; ref 37 Malherbe et al.; cited from earlier work
hOX1 D203A = hOX1 D203A (45.51) relative to wild type, [Ca2+]i response, ref 37 Malherbe et al., cited from earlier work
Text: (§2) Other mutations had no major effect on efficacy.

hOX1 W206A = details: cited from earlier work; for ratio EC50(mut)/EC50(WT): hOX1 W206A (45.54) relative to wild type, [Ca2+]i response, ref 37 Malherbe et al.
Text: as §2

hOX1 Y224A = hOX1 Y224A (5.47) relative to wild type, [Ca2+]i response, ref 37 Malherbe et al., cited from earlier work
Text: as §2

hOX1 Y311A = details: cited from earlier work
Text: as §2

hOX1 Y215A = hOX1 Y215A (5.38) relative to wild type, [Ca2+]i response, ref 37 Malherbe et al., cited from earlier work
Text: as §2

hOX2 H350A = details: cited from earlier work; for ratio EC50(mut)/EC50(WT): hOX2 H350A (7.39) relative to wild type, [Ca2+]i response, ref 37 Malherbe et al.
Text: We observed that in OX1, H^7.39 interacts with residues L16 and L20 of helix 1 of OxA (see Figure 6A). […] On the other hand, in OX2, H^7.39 interacts with L20 and not with L16 (see Figure 6B), and ...

In the case of “Orexin-A (QPLPDCCRQKTCSCRLYELLHGAGNHAAGILTL; ends and bridges not checked; cysteine pairing not given here; UniProt O43612 34-66, looked up) [hypothalamic neuropeptide, 33 amino acids, two intramolecular disulfide bonds C6-C12 and C7-C14; natural OX1/OX2 agonist]”, the “ratio EC50(mut)/EC50(WT)” value (hOX1 A127T) is given as 1.8 ^c fold, the “ratio EC50(mut)/EC50(WT)” value (hOX1 Q126A) is given as 2.4 ^c fold and the “ratio EC50(mut)/EC50(WT)” value (hOX1 Y348A) is given as 8.7 ^c fold. The “decrease in Emax” value (hOX1 H344A; OX1 H7.39 (H344) mutated to alanine) was 64.5%, the “ratio EC50(mut)/EC50(WT)” value (hOX1 H344A) was 241.1 ^c fold and the “ratio EC50(mut)/EC50(WT)” value (hOX1 H344A; listed as OxA) was 241.1 fold. The “ratio EC50(mut)/EC50(WT)” value (hOX2 Y232A) was 28.4 ^c fold, the “ratio EC50(mut)/EC50(WT)” value (hOX2 Y232A; listed as OxA) was 28.4 fold and the “Emax (decreased)” value (hOX2 Y232A; hOX2 Y232A compared with WT) was 44.9%. For the same substance, the “ratio EC50(mut)/EC50(WT)” value (hOX1 V130A) was 30.6 ^c fold, the “ratio EC50(mut)/EC50(WT)” value (hOX1 V130A; listed as OxA) was 30.6 fold and the “efficacy (reduced to)” value (hOX2 F227A; hOX2 F5.42 (F227) mutated to alanine) was 64.3%. For the same substance, the “ratio EC50(mut)/EC50(WT)” value (hOX2 F227A) was 240.3 ^c fold, the “ratio EC50(mut)/EC50(WT)” value (hOX2 F227A; listed as OxA) was 240.3 fold and the “ratio EC50(mut)/EC50(WT)” value (hOX2 Y317A) was 17.7 ^c fold. For the same substance, the “ratio EC50(mut)/EC50(WT)” value (hOX2 Y317A; listed as OxA) was 17.7 fold, the “relative Emax (decreases to)” value (hOX2 Y317A; hOX2 Y317A compared with WT) was 49.6% and the “ratio EC50(mut)/EC50(WT)” value (hOX2 T111A) was 243.5 ^c fold. For the same substance, the “ratio EC50(mut)/EC50(WT)” value (hOX2 T111A; listed as OxA) was 243.5 fold, the “ratio EC50(mut)/EC50(WT)” value (hOX2 D211A) was 416.1 ^c fold and the “ratio EC50(mut)/EC50(WT)” value (hOX2 D211A; listed as OxA) was 416.1 fold. The “ratio EC50(mut)/EC50(WT)” value (hOX2 Q134A) was 22.3 fold, the “ratio EC50(mut)/EC50(WT)” value (hOX1 D203A) was 408.2 ^c fold and the “ratio EC50(mut)/EC50(WT)” value (hOX1 D203A; listed as OxA) was 408.2 fold. For the same substance, the “ratio EC50(mut)/EC50(WT)” value (hOX1 W206A) was 417.8 ^c fold, the “ratio EC50(mut)/EC50(WT)” value (hOX1 W206A; listed as OxA) was 417.8 fold and the “decrease in the maximal efficacy (Emax)” value (hOX1 W206A; hOX1 W206A compared with WT) was 45.0%. The “ratio EC50(mut)/EC50(WT)” value (hOX1 Y224A) was 84.4 ^c fold, the “ratio EC50(mut)/EC50(WT)” value (hOX1 Y224A; listed as OxA) was 84.4 fold and the “ratio EC50(mut)/EC50(WT)” value (hOX1 Y311A; hOX1 Y311A (6.48) relative to wild type, [Ca2+]i response, ref 37 Malherbe et al.) was 163.9 fold. The “decrease in the maximal efficacy (Emax)” value (hOX1 Y311A; hOX1 Y311A compared with WT) was 53.4%, the “ratio EC50(mut)/EC50(WT)” value (hOX1 Y215A) was 407.8 ^c fold and the “ratio EC50(mut)/EC50(WT)” value (hOX1 Y215A; listed as OxA) was 407.8 fold. The “decrease in Emax” value (hOX2 H350A; OX2 H7.39 (H350) mutated to alanine) was 63.0%, the “ratio EC50(mut)/EC50(WT)” value (hOX2 H350A) was 49.5 ^c fold and the “ratio EC50(mut)/EC50(WT)” value (hOX2 H350A; listed as OxA) was 49.5 fold.
